Biological target: human kallikrein 7 (hKallikrein7) (Homo sapiens, UniProt P49862)
Assay: Kallikrein 7 fluorescence-quenched substrate enzymatic assay (IC50)
Assay type: biochemical
Protocol: An “inhibitor” is a cyclic depsipeptide that inhibits an enzymatic reaction with a measure IC50 of less than […], for instance 50 μM, 30 μM, 20 μM or 10 μM. Particularly preferred are cyclic depsipeptides with an IC50 of less than 30 μM for human kallikrein 7, for instance cyclic depsipeptides with an IC50 of less than 10 μM, 1 μM, 100 nM, 50 nM, 40 nM, 30 nM, 20 nM, 10 nM, or less. IC50 for human kallikrein can be measured using the fluorescence-quenched substrate Ac-Glu-Asp(EDANS)-Lys-Pro-lle-Leu-Phe^Arg-Leu-Gly-Lys(DABCYL)-Glu-NH2 (SEQ ID NO 1) (where ^ indicates the scissile bond, identified by MS analysis) which can be purchased from Biosyntan (Berlin, Germany). Enzymatic reactions are conducted in 50 mM sodium citrate buffer at pH 5.6 containing 150 mM NaCl and 0.05% (w/v) CHAPS. For the determination of IC50 values the assay is performed at room temperature in 384-well plates. All final assay volumes are 30 μl. Test compounds are dissolved in 90% (v/v) DMSO/water and diluted in water (containing 0.05% (w/v) CHAPS) to 3-times the desired assay concentration. The 11 final compound concentrations are: 0.3 nM, 1 nM, 3 nM, 10 nM, 30 nM, 100 nM, 300 nM, 1 μM, 3 μM, 10 μM and 30 μM. For each assay, 10 μl water/CHAPS (±test compound) are added per well, followed by 10 μl protease solution (diluted with 1.5× assay buffer). The protease concentration in final assay solution is 0.2 nM (according to the enzyme concentrations determined by the Bradford method). After 1 hour of incubation at room temperature, the reaction is started by addition of 10 μl substrate solution (substrate dissolved in 1.5× assay buffer, final concentration is 2 μM). The effect of the compound on the enzymatic activity is obtained from the linear progress curves and determined from two readings, the first one taken directly after the addition of substrate (t=0 min) and the second one after 1 hour (t=60 min). The IC50 value is calculated from the plot of percentage of inhibition vs. inhibitor concentration using non-linear regression analysis software (XLfit, Vers. 4.0; ID Business Solution Ltd., Guildford, Surrey, UK).
The fluorescence-quenched substrate Ac-Glu-Asp(EDANS)-Lys-Pro-lle-Leu-Phe^Arg-Leu-Gly-Lys(DABCYL)-Glu-NH2 (SEQ ID NO1) (where ^ indicates the scissile bond, identified by MS analysis) is purchased from Biosyntan (Berlin, Germany) and kept as a 5 mM stock solution in DMSO at −20° C. All other chemicals are of analytical grade. […]
For fluorescence intensity (FI) measurements an Ultra Evolution reader (TECAN, Maennedorf, Switzerland) is used. The instrument is equipped with a combination of a 350 nm (20 nm bandwidth) and a 500 nm (25 nm bandwidth) bandpath filter for fluorescence excitation and emission acquisition, respectively. […]

Chain of human kallikrein 7 (hKallikrein7) (P49862 30-253): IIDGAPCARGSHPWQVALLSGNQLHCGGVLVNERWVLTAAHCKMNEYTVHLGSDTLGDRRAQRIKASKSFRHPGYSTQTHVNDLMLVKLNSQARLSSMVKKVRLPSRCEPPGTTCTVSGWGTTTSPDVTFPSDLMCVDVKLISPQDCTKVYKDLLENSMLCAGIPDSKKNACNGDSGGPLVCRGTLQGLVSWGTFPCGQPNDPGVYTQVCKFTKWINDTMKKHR

Point of comparison: CCC(C)C(=O)N[C@@H](CCC(N)=O)C(=O)N[C@H]1C(=O)N[C@@H](CC(C)C)C(=O)N[C@H]2CC=CN(C2=O)[C@@H](C(C)CC)C(=O)N(C)[C@@H](Cc2ccc(O)cc2)C(=O)N[C@@H](C(C)CC)C(=O)O[C@@H]1C (stereo partly shown) [formula (IV)], IC50 5 nM. Against it:
- CCC(C)[C@@H]1NC(=O)[C@H](Cc2ccc(O)cc2)N(C)C(=O)[C@H](C(C)CC)N2C=CC[C@H](NC(=O)[C@H](CC(C)C)NC(=O)[C@H](NC(=O)[C@H](CCC(N)=O)NC(=O)C(C)C)[C@@H](C)OC1=O)C2=O (stereo partly shown) [formula (V)] — within 1.5-fold, 6 nM
- CCC(C)C(=O)N[C@@H](CCC(N)=O)C(=O)NC1C(=O)N[C@@H](CC(C)C)C(=O)NC2CC[C@H](O)N(C2=O)[C@@H](C(C)CC)C(=O)N(C)[C@@H](Cc2ccc(O)cc2)C(=O)N[C@@H](C(C)CC)C(=O)O[C@@H]1C (stereo partly shown) [formula (III)] — 12-fold lower, 0.4 nM
- CCC(C)[C@@H]1NC(=O)[C@H](Cc2ccc(O)cc2)N(C)C(=O)[C@H](C(C)CC)N2C(=O)C(CC[C@@H]2O)NC(=O)[C@H](CC(C)C)NC(=O)[C@H](NC(=O)[C@H](CCC(N)=O)NC(=O)C(C)C)[C@@H](C)OC1=O (stereo partly shown) [formula (II)] — 5-fold lower, 1 nM

Reference: patent US8415305B2, “Use of cyclic depsipeptides to inhibit kallikrein 7” (Novartis AG, priority 2007, dated 2013)
